The test system of series [1] is bitransgenic EpA960/MCM mice. The experiment in a line: Tamoxifen-inducible heart-specific DM1 mouse model, mortality. The following applies: intraperitoneal mifepristone in saline, beginning 2 hours after first tamoxifen injection; 1-100 mg per kg body weight; mock-treated mice 80% died within 3 weeks. The series is classed as in vivo. Here is the method:
In this model, EpA960 RNA is induced in the bitransgenic EpA960/MCM mice (F1 progeny) by 5 consecutive daily intraperitoneal injections of tamoxifen (20 mg/kg/d) leading to high mortality, conduction abnormalities, and systolic and diastolic dysfunction. […] Control or mock-treated mice are injected with saline solution alone. Each of the control and test groups typically includes 10-20 mice.
Typically, eighty percent of the mock-treated mice died within 3 weeks of RNA induction due to arrhythmias and/or contractile dysfunction. […] Description of experimental procedures can be found in, e.g., Wang et al., J Clin Invest. 2009; 119(12):3797-806.

For series [2] the following is noted: percent of the daily dose; in one study (Kawai); cited from earlier work.

Structures are written as SMILES.

For `CC#C[C@]1(O)CC[C@H]2[C@@H]3CCC4=CC(=O)CCC4=C3[C@@H](c3ccc(N(C)C)cc3)C[C@@]21C` [Mifepristone, 17-β-hydroxy-11-β-(4-dimethyl-aminophenyl)-17-α-(1-propynyl)-estra-4,9-dien-3-one], the “reduction of the mortality of bitransgenic mice” value in series [1] is on record as “at least 10%”. The “daily dose excreted in the urine” value in series [2] was “less than 0.5%”.

(Values after patent US11103514B2, “Treatment of muscular dystrophy” (Corcept Therapeutics, Inc., priority 2010, dated 2021).)
